# Assay results as given in ChEMBL document CHEMBL1131664, “Design and synthesis of potent and selective 5,6-fused heterocyclic thrombin inhibitors” (Bioorg Med Chem Lett, 1999).
# What was measured:
# Prothrombin = Prothrombin (Homo sapiens, UniProt P00734); assay: Inhibition of Coagulation factor II
# [1] = Inhibition of factor Xa
# Serine protease 1 = Serine protease 1 (Homo sapiens, UniProt P07477); assay: Inhibitory activity against trypsin
# Rattus norvegicus = assay: Effect on thrombus weight in rat vena cava thrombosis model (iv administration); type: functional
# Chain of Serine protease 1 (P07477 whole entry): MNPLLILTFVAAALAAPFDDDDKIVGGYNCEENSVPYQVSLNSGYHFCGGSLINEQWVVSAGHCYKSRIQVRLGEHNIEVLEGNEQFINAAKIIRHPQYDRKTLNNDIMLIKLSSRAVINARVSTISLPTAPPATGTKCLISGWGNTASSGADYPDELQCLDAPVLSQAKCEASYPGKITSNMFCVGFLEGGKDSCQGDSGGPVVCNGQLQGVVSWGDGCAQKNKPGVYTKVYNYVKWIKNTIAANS
Compound,Ki (Prothrombin) [nM],Ki [1] [nM],Ki (Serine protease 1) [nM],ID50 (Rattus norvegicus) [mg/kg/h]
N=C(N)c1ccc2c(c1)c(CC(=O)O)cn2CC(=O)N1CCC(Cc2ccccc2)CC1,19,3000,,
N=C(N)c1ccc2c(ccn2CC(=O)N2CCC(C(O)c3ccccc3)CC2)c1 (stereo not given),> 21000,16000,> 15000,
CC(=O)N[C@H](Cc1ccccc1)C(=O)N1CCC[C@H]1C(=O)N[C@@H](CCCN=C(N)N)B(O)O,,,9,0.04
N=C(N)c1ccc2c(c1)ncn2CC(=O)N1CCC(Cc2ccccc2)CC1,300,25000,,
N=C(N)c1ccc2c(ccn2CC(=O)N2CCC(Cc3ccccc3)CC2)c1,18,10300,> 15000,0.8
N=C(N)c1ccc2c(c1)c(CCO)cn2CC(=O)N1CCC(Cc2ccccc2)CC1,7,2400,310,
N=C(N)c1c[nH]c2cc(S(=O)(=O)N3CCC(Cc4ccccc4)CC3)ccc12,210,3300,1200,
N=C(N)c1ccc2c(ccn2CC(=O)N2CCC(Cc3ccccc3F)CC2)c1,24,23000,,
N=C(N)c1ccc2c(ccn2CC(=O)N2CCC(C(=O)c3ccccc3)CC2)c1,> 21000,9500,> 15000,
N=C(N)c1ccc2c(ccn2CC(=O)N2CCC(Cc3cccc(F)c3)CC2)c1,24,11000,,
COC(=O)/C=C/c1cn(CC(=O)N2CCC(Cc3ccccc3)CC2)c2ccc(C(=N)N)cc12,28,1200,280,
COC(=O)Cc1cn(CC(=O)N2CCC(Cc3ccccc3)CC2)c2ccc(C(=N)N)cc12,7.4,400,140,
N=C(N)c1ccc2c(cnn2CC(=O)N2CCC(Cc3ccccc3)CC2)c1,140,2900,> 6000,
